Key:
normal rats = experiment: Blood pressure and heart rate by implantable radiotelemetry; type: in vivo, rat; conditions: 0.624 mg/kg p.o.
Source text: An implantable radiotelemetry device was placed in the abdominal cavity of 6 rats per group. The pressure catheter of the device was inserted in the abdominal aorta and two electrodes tunnelised under the skin in a lead II position (left side of abdominal cavity/right shoulder). Individual rats were placed in their own cage on a radioreceptor (DSI) for data acquisition. A: blood pressure; B: heart rate.

adenosine receptors = adenosine receptors (Rattus norvegicus, UniProt P30543); experiment: EC50 at adenosine receptors measured at pH 7.4; type: biochemical
Source text: For the avoidance of doubt, the EC50 value of a compound is defined herein as the concentration of the compound that provokes a receptor response halfway between the baseline receptor response and the maximum receptor response (as determined, for example, using a dose-response curve).
The EC50 value should be determined under standard conditions (balanced salt solutions buffered to pH 7.4). […] The EC50 could also be determined in vivo by measuring adenosine receptor mediated responses in a normal healthy animal, or even in a tissue perfused under normal conditions (i.e. oxygenated blood, or oxygenated isotonic media, also buffered at pH 7.4) in a normal healthy animal.

[1] = tested on: carrageenan (CGN) induced thermal hyperalgesia; experiment: Carrageenan induced thermal hyperalgesia (CITH); type: in vivo; conditions: 0.624 mg/kg p.o.
Protocol: Carrageenan (2%, 10 microlitres) was administered into the right hind paw. A heat source was placed close to the treated and untreated hind paws, and the difference in the paw withdrawal latencies is shown. Spongosine was administered at the same time as carrageenan.

[2] = tested on: normal physiological nociception; experiment: Normal physiological nociception after administration; type: in vivo
Source text: Compounds of formula (I) are believed to be effective in inhibiting pain perception in mammals suffering from pain, in particular neuropathic and inflammatory pain, even when administered at doses expected to give plasma concentrations well below those known to activate adenosine receptors. […] Therefore, compounds of formula (I) can treat pain (particularly neuropathic and inflammatory pain) without causing the significant side effects associated with administration of other adenosine receptor agonists, and also without reducing normal sensory perception.

rat A2A receptor = rat A2A receptor (Rattus norvegicus, UniProt P30543); conditions: read-out: EC50 for stimulation of the rat A2A receptor; cited from earlier work
[3] = tested on: chronic constriction injury of the rat sciatic nerve; experiment: Chronic constriction injury model of neuropathic pain, thermal hyperalgesia; type: in vivo; conditions: 0.624 mg/kg p.o.
Source text: After approximately two weeks the rats developed thermal hyperalgesia in the operated leg as judged by the difference in paw withdrawal latencies of the right and left paws.

rats = conditions: cited from earlier work
[4] = tested on: static allodynia in a model of neuropathic pain; experiment: Static allodynia in a model of neuropathic pain (paw withdrawal threshold); type: in vivo
Protocol: Spongosine and gabapentin were administered (p.o.) in different proportions as indicated in the drawing. The total dose administered is shown on the horizontal axis, and the paw withdrawal threshold (PWT) on the vertical axis. The predicted anti-hyperalgesic effect (derived from the dose response curves obtained with each agent alone) if the effects of the two compounds are additive is shown (●). The observed effects are indicated by (▪).

[5] = Plasma concentration over time after administration; type: in vivo, rat
Protocol: It can be seen that the plasma concentration remains above 2% of the EC50 value for more than 3 hours.

Sequence of rat A2A receptor (P30543 whole entry): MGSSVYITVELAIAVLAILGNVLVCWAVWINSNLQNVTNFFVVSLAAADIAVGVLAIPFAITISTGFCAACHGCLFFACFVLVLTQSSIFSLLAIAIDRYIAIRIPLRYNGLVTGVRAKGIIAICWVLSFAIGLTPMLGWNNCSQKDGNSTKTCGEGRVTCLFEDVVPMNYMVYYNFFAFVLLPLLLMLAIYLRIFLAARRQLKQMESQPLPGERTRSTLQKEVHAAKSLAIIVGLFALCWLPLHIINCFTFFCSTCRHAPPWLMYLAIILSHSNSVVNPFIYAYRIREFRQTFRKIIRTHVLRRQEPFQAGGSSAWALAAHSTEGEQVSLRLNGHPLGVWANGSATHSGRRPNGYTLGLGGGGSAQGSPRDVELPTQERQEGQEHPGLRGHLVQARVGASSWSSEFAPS
Sequence of adenosine receptors (P30543 whole entry): as above

COc1nc(N)c2ncn([C@@H]3O[C@H](CO)[C@@H](O)[C@H]3O)c2n1 [Spongosine, 2-methoxyadenosine]
Effect on blood pressure (normal rats): no significant effect | Effect on heart rate (normal rats): no significant effect | EC50 (adenosine receptors): 3000 nM | Efficacy compared with indomethacin (3 mg/kg p.o.) in carrageenan induced thermal hyperalgesia [1]: as effective as indomethacin | Effect on carrageenan induced thermal hyperalgesia (difference in paw withdrawal latencies) ([1]; given at the same time as carrageenan (2%, 10 microlitres, right hind paw)): inhibits carrageenan (CGN) induced thermal hyperalgesia | Effect on normal physiological nociception [2]: no effect | EC50 (rat A2A receptor): 3000 nM | Effect on thermal hyperalgesia caused by chronic constriction injury (difference in paw withdrawal latencies) [3]: inhibits thermal hyperalgesia | Efficacy compared with carbamazepine (CBZ, 100 mg/kg s.c.) in chronic constriction injury model [3]: as, or more, effective than carbamazepine | Biological activities in rats (rats): muscle relaxant, hypothermic, hypotensive, and anti-inflammatory activity | Effect on static allodynia (paw withdrawal threshold, PWT) ([4]; 1.2 mg/kg p.o., in the presence and absence of naloxone (1 mg/kg s.c.)): inhibits static allodynia | Effect on static allodynia (paw withdrawal threshold, PWT) ([4]; p.o., Example 6): inhibit static allodynia | Blood pressure effect if the peak plasma concentration reaches the EC50 value ([5]; last for hours): profound reductions in blood pressure | Time plasma concentration remains above 2% of the EC50 value ([5]; rat, 0.6 mg/kg): more than 3 hours

NCC1(CC(=O)O)CCCCC1 [gabapentin, reference compound]
Effect on static allodynia (paw withdrawal threshold, PWT) ([4]; p.o., Example 6): inhibit static allodynia
